Read-outs that look alike come from different tables or passages of the source.
Tests used:
[1] = system: giant foxtail; experiment: Test B pre-/postemergence herbicide test; assay type: in vivo, Setaria faberi; details: Setaria faberi, 336 h; for pest or weed control at 500 g/ha: 500 g ai/ha; for pest or weed control at 125 g/ha: 125 g ai/ha
In short: (§1)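 Flooded paddy rice and barnyardgrass were treated at the 2-leaf stage; upland plantings received compound either on sown seed or on 1- to 4-leaf seedlings. All were kept 13–15 days in a greenhouse and scored visually, 0–100, relative to untreated plants.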

[2] = system: blackgrass; experiment: Test B postemergence herbicide test; assay type: in vivo, Alopecurus myosuroides; details: scale 0 (no effect) to 100 (complete control)
In short: (§2)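 Plants grow to 1- to 4-leaf stage (2–18 cm) for postemergence spraying, or to 2-leaf stage for the paddy test. Formulated compound is applied. Greenhouse holding lasts 13–15 days. Response is scored visually relative to controls, 0 no effect to 100 complete control; a dash means no result.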

[3] = system: wild oat; experiment: Test B postemergence herbicide test; assay type: in vivo, Avena fatua; details: scale 0 (no effect) to 100 (complete control)
In short: (§3)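 Treated at 2-leaf (paddy) or 1–4-leaf, 2–18 cm (postemergence); greenhouse 13–15 d; visual score vs control, 0 none to 100 complete control; dash = not tested.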

[4] = system: Surinam grass; experiment: Test B pre-/postemergence herbicide test; assay type: in vivo, Urochloa decumbens; details: Urochloa decumbens; for pest or weed control at 125 g/ha: 125 g ai/ha
In short: as §1

[5] = system: large crabgrass; experiment: Test B pre-/postemergence herbicide test; assay type: in vivo, Digitaria sanguinalis; details: Digitaria sanguinalis; for pest or weed control at 500 g/ha: 500 g ai/ha; for pest or weed control at 125 g/ha: 125 g ai/ha
In short: as §1

[6] = system: rice; experiment: Test B flooded paddy test; assay type: in vivo, Oryza sativa; details: Oryza sativa, 336 h, 1000 g ai/ha, visual rating, scale 0 to 100 (0 no effect, 100 complete control), 13 to 15 days, read-out: Rice plant response rating
In short: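 After treating 2-leaf paddy plants or 2–18 cm postemergence plants (1 to 4 leaves) with formulated chemical, researchers kept them in a greenhouse for 13–15 days. Effects were judged visually versus controls: 0 indicates none, 100 total control.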

[7] = system: pigweed; experiment: Test B pre-/postemergence herbicide test; assay type: in vivo, Amaranthus retroflexus; details: Amaranthus retroflexus, 336 h; for pest or weed control at 125 g/ha: 125 g ai/ha
In short: as §1

[8] = system: wheat; experiment: Test B postemergence herbicide test; assay type: in vivo, Triticum aestivum; details: scale 0 (no effect) to 100 (complete control)
In short: as §3

[9] = system: barnyardgrass; experiment: Test B flooded paddy test; assay type: in vivo, Echinochloa crus-galli; details: Echinochloa crus-galli, 336 h, 1000 g ai/ha, visual rating, scale 0 to 100 (0 no effect, 100 complete control), 13 to 15 days, read-out: Barnyardgrass plant response rating
In short: as §2

[10] = system: barnyardgrass; experiment: Test B pre-/postemergence herbicide test; assay type: in vivo, Echinochloa crus-galli; details: Echinochloa crus-galli; for pest or weed control at 500 g/ha: 500 g ai/ha; for pest or weed control at 125 g/ha: 125 g ai/ha
In short: (§4)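 Species tested were Echinochloa crus-galli, Ipomoea coccinea, Xanthium strumarium and Oryza sativa, treated both before emergence and at the 1- to 4-leaf stage; rice and barnyardgrass were also tested under flooding at 2 leaves. Greenhouse incubation lasted 13–15 days before visual 0–100 scoring.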

[11] = system: lambsquarters; experiment: Test B pre-/postemergence herbicide test; assay type: in vivo, Chenopodium album; details: Chenopodium album, 336 h; for pest or weed control at 125 g/ha: 125 g ai/ha
In short: as §1

[12] = system: morningglory; experiment: Test B pre-/postemergence herbicide test; assay type: in vivo, Ipomoea coccinea; details: Ipomoea, 336 h; for pest or weed control at 125 g/ha: 125 g ai/ha
In short: as §4

[13] = system: cocklebur; experiment: Test B pre-/postemergence herbicide test; assay type: in vivo, Xanthium strumarium; details: Xanthium strumarium; for pest or weed control at 500 g/ha: 500 g ai/ha; for pest or weed control at 125 g/ha: 125 g ai/ha
In short: as §4

[14] = system: velvetleaf; experiment: Test B pre-/postemergence herbicide test; assay type: in vivo, Abutilon theophrasti; details: Abutilon theophrasti, 336 h; for pest or weed control at 125 g/ha: 125 g ai/ha
In short: as §1

[15] = system: small flower umbrella sedge; experiment: Test B flooded paddy test; assay type: in vivo, Cyperus difformis; details: Cyperus difformis, 336 h, 1000 g ai/ha, visual rating, scale 0 to 100 (0 no effect, 100 complete control), 13 to 15 days, read-out: Sedge, Umbrella plant response rating
In short: as §2

[16] = Postemergence, 500 g ai/ha, visual rating after 13 to 15 days

## CCOC(=O)c1cccc(NC(=O)c2cc(C(C)(C)C)nn2CC)c1 [Compound 80, ethyl 3-[[[3-(1,1-dimethylethyl)-1-ethyl-1H-pyrazol-5-yl]carbonyl]-amino]benzoate]
[1]; post-emergence, Postemergence, visual rating after 13 to 15 days, scale 0 (no effect) to 100 (complete control), read-out: Plant response rating, Foxtail, Giant
  pest or weed control at 500 g/ha: 90%
[1]; post-emergence, postemergence, visual rating, scale 0 (no effect) to 100 (complete control), read-out: Foxtail, Giant plant response rating
  pest or weed control at 125 g/ha: 50%
[1]; pre-emergence, Preemergence, scale 0 to 100, read-out: Foxtail, Giant plant response rating
  pest or weed control at 500 g/ha: 70%
[1]; pre-emergence, preemergence, 0 to 100 scale, 0 is no effect, 100 is complete control, read-out: Plant response rating, Foxtail, Giant
  pest or weed control at 125 g/ha: 20%
[2]; Alopecurus myosuroides, post-emergence, 336 h, postemergence, 125 g ai/ha, visual rating, read-out: Blackgrass plant response rating
  pest or weed control at 125 g/ha: 20%
[2]; [16]
  Plant response rating, Blackgrass: 40
[3]; Avena fatua, post-emergence, 336 h, postemergence, 125 g ai/ha, visual rating, read-out: Oat, Wild plant response rating
  pest or weed control at 125 g/ha: 30%
[3]; [16]
  Plant response rating, Oat, Wild: 50
[4]; post-emergence, Postemergence, 500 g ai/ha, visual rating after 13 to 15 days, scale 0 (no effect) to 100 (complete control), read-out: Plant response rating, Surinam Grass
  pest or weed control at 500 g/ha: 90%
[4]; post-emergence, postemergence, visual rating, scale 0 (no effect) to 100 (complete control), read-out: Surinam Grass plant response rating
  pest or weed control at 125 g/ha: 90%
[4]; pre-emergence, preemergence, 0 to 100 scale, 0 is no effect, 100 is complete control, read-out: Plant response rating, Surinam Grass
  pest or weed control at 125 g/ha: 0%
[5]; post-emergence, Postemergence, visual rating after 13 to 15 days, scale 0 (no effect) to 100 (complete control), read-out: Plant response rating, Crabgrass, Large
  pest or weed control at 500 g/ha: 100%
[5]; post-emergence, postemergence, visual rating, scale 0 (no effect) to 100 (complete control), read-out: Crabgrass, Large plant response rating
  pest or weed control at 125 g/ha: 100%
[5]; pre-emergence, Preemergence, scale 0 to 100, read-out: Crabgrass, Large plant response rating
  pest or weed control at 500 g/ha: 0%
[5]; pre-emergence, preemergence, 0 to 100 scale, 0 is no effect, 100 is complete control, read-out: Plant response rating, Crabgrass, Large
  pest or weed control at 125 g/ha: 0%
[6]
  plant injury at 1000 g/ha: 60%
[7]; post-emergence, Postemergence, 500 g ai/ha, visual rating after 13 to 15 days, scale 0 (no effect) to 100 (complete control), read-out: Plant response rating, Pigweed
  pest or weed control at 500 g/ha: 100%
[7]; post-emergence, postemergence, visual rating, scale 0 (no effect) to 100 (complete control), read-out: Pigweed plant response rating
  pest or weed control at 125 g/ha: 100%
[7]; pre-emergence, preemergence, 0 to 100 scale, 0 is no effect, 100 is complete control, read-out: Plant response rating, Pigweed
  pest or weed control at 125 g/ha: 0%
[8]; [16]
  Plant response rating, Wheat: 30
[8]; Triticum aestivum, post-emergence, 336 h, postemergence, 125 g ai/ha, visual rating, read-out: Wheat plant response rating
  plant injury at 125 g/ha: 20%
[9]
  pest or weed control at 1000 g/ha: 80%
[10]; post-emergence, Postemergence, visual rating after 13 to 15 days, scale 0 (no effect) to 100 (complete control), read-out: Plant response rating, Barnyardgrass
  pest or weed control at 500 g/ha: 90%
[10]; post-emergence, postemergence, visual rating, scale 0 (no effect) to 100 (complete control), read-out: Barnyardgrass plant response rating
  pest or weed control at 125 g/ha: 80%
[10]; pre-emergence, Preemergence, scale 0 to 100, read-out: Barnyardgrass plant response rating
  pest or weed control at 500 g/ha: 20%
[10]; pre-emergence, preemergence, 0 to 100 scale, 0 is no effect, 100 is complete control, read-out: Plant response rating, Barnyardgrass
  pest or weed control at 125 g/ha: 0%
[11]; post-emergence, Postemergence, 500 g ai/ha, visual rating after 13 to 15 days, scale 0 (no effect) to 100 (complete control), read-out: Plant response rating, Lambsquarters
  pest or weed control at 500 g/ha: 80%
[11]; post-emergence, postemergence, visual rating, scale 0 (no effect) to 100 (complete control), read-out: Lambsquarters plant response rating
  pest or weed control at 125 g/ha: 70%
[11]; pre-emergence, preemergence, 0 to 100 scale, 0 is no effect, 100 is complete control, read-out: Plant response rating, Lambsquarters
  pest or weed control at 125 g/ha: 0%
[12]; post-emergence, Postemergence, 500 g ai/ha, visual rating after 13 to 15 days, scale 0 (no effect) to 100 (complete control), read-out: Plant response rating, Morningglory
  pest or weed control at 500 g/ha: 100%
[12]; post-emergence, postemergence, visual rating, scale 0 (no effect) to 100 (complete control), read-out: Morningglory plant response rating
  pest or weed control at 125 g/ha: 100%
[12]; pre-emergence, preemergence, 0 to 100 scale, 0 is no effect, 100 is complete control, read-out: Plant response rating, Morningglory
  pest or weed control at 125 g/ha: 0%
[13]; post-emergence, Postemergence, visual rating after 13 to 15 days, scale 0 (no effect) to 100 (complete control), read-out: Plant response rating, Cocklebur
  pest or weed control at 500 g/ha: 100%
[13]; post-emergence, postemergence, visual rating, scale 0 (no effect) to 100 (complete control), read-out: Cocklebur plant response rating
  pest or weed control at 125 g/ha: 70%
[13]; pre-emergence, Preemergence, scale 0 to 100, read-out: Cocklebur plant response rating
  pest or weed control at 500 g/ha: 0%
[13]; pre-emergence, preemergence, 0 to 100 scale, 0 is no effect, 100 is complete control, read-out: Plant response rating, Cocklebur
  pest or weed control at 125 g/ha: 0%
[14]; post-emergence, Postemergence, 500 g ai/ha, visual rating after 13 to 15 days, scale 0 (no effect) to 100 (complete control), read-out: Plant response rating, Velvetleaf
  pest or weed control at 500 g/ha: 100%
[14]; post-emergence, postemergence, visual rating, scale 0 (no effect) to 100 (complete control), read-out: Velvetleaf plant response rating
  pest or weed control at 125 g/ha: 90%
[14]; pre-emergence, preemergence, 0 to 100 scale, 0 is no effect, 100 is complete control, read-out: Plant response rating, Velvetleaf
  pest or weed control at 125 g/ha: 20%
[15]
  pest or weed control at 1000 g/ha: 80%

— US20060069132A1, “Azolecarboxamide herbicides” (priority 2004, published 2006)
